Results taken from ChEMBL document CHEMBL5154679, “A target and efficient synthetic strategy for structural and bioactivity optimization of a fungal natural product” (Eur J Med Chem, 2022).
≈ marks a conversion by molar mass, not a printed value. Blank lines part the entries; values can stand above or below the compound they belong to. Calls of active or inactive are those of the source. The calls are words filed in the database; no cut-off is given here.

Assays:
HCT-116 [1] = assay: Antiproliferative activity against human HCT-116 cells assessed as reduction in cell viability incubated for 48 hrs by SRB assay; assay type: functional, cell-based; settings: HCT-116, 48 h
[2] = Cytotoxicity against human HUVEC cells assessed as reduction in cell viability incubated for 48 hrs by SRB assay; assay type: toxicity, cell-based
HeLa [3] = assay: Antiproliferative activity against human HeLa cells assessed as reduction in cell viability incubated for 48 hrs by SRB assay; assay type: functional, cell-based
[4] = Cytotoxicity against human L02 cells assessed as reduction in cell viability incubated for 48 hrs by SRB assay; assay type: toxicity, cell-based
MCF7 [5] = assay: Antiproliferative activity against human MCF7 cells assessed as reduction in cell viability incubated for 48 hrs by SRB assay; assay type: functional, cell-based; settings: MCF7, 48 h
HepG2 = assay: Antiproliferative activity against human HepG2 cells assessed as reduction in cell viability incubated for 48 hrs by SRB assay; assay type: functional, cell-based; settings: HepG2, 48 h
MGC-803 = assay: Antiproliferative activity against human MGC-803 cells assessed as reduction in cell viability incubated for 48 hrs by SRB assay; assay type: functional, cell-based; settings: MGC-803, 48 h
MDA-MB-231 [6] = assay: Antiproliferative activity against human MDA-MB-231 cells assessed as reduction in cell viability incubated for 48 hrs by SRB assay; assay type: functional, cell-based; settings: MDA-MB-231, 48 h
[7] = MRT (0 to t) in Sprague-Dawley rat at 1 mg/kg, iv by LC-MS/MS analysis; assay type: ADME, organism-based; settings: in vivo
[8] = Half life in Sprague-Dawley rat at 1 mg/kg, iv by LC-MS/MS analysis; assay type: ADME, organism-based; settings: in vivo
HCT-116 [9] = assay: Inhibition of colony formation in human HCT-116 cells at 2 ug/ml measured after 48 hrs by crystal violet staining based analysis; assay type: functional, cell-based; settings: dose 2.0 µg/ml
[10] = Clearance in Sprague-Dawley rat at 1 mg/kg, iv by LC-MS/MS analysis; assay type: ADME, organism-based; settings: in vivo
[11] = Tmax in Sprague-Dawley rat at 1 mg/kg, iv by LC-MS/MS analysis; assay type: ADME, organism-based; settings: in vivo
MDA-MB-231 [12] = assay: Anti-invasive activity against human MDA-MB-231 cells assessed as inhibition of cell invasion at 2 ug/ml measured after 24 hrs by transwell assay; assay type: functional, cell-based; settings: dose 2.0 µg/ml
MDA-MB-231 [13] = assay: Anti-metastasis activity against human MDA-MB-231 cells assessed as inhibition of cell migration at 2 ug/ml measured after 24 hrs by scratch wound healing assay; assay type: functional, cell-based; settings: dose 2.0 µg/ml
[14] = Cmax in Sprague-Dawley rat at 1 mg/kg, iv by LC-MS/MS analysis; assay type: ADME, organism-based; design: dose 1 mg/kg, route iv; settings: in vivo
MCF7 [15] = assay: Inhibition of colony formation in human MCF7 cells at 2 ug/ml measured after 48 hrs by crystal violet staining based analysis; assay type: functional, cell-based; settings: dose 2.0 µg/ml
[16] = AUC (0 to t) in Sprague-Dawley rat at 1 mg/kg, iv by LC-MS/MS analysis; assay type: ADME, organism-based; design: dose 1 mg/kg, route iv; settings: in vivo
HeLa [17] = assay: Inhibition of colony formation in human HeLa cells at 2 ug/ml measured after 48 hrs by crystal violet staining based analysis; assay type: functional, cell-based; settings: dose 2.0 µg/ml
[18] = Volume of distribution in Sprague-Dawley rat at 1 mg/kg, iv by LC-MS/MS analysis; assay type: ADME, organism-based; settings: in vivo
[19] = AUC (0 to infinity) in Sprague-Dawley rat at 1 mg/kg, iv by LC-MS/MS analysis; assay type: ADME, organism-based; design: time infinity, dose 1 mg/kg, route iv; settings: in vivo
[20] = MRT (0 to infinity) in Sprague-Dawley rat at 1 mg/kg, iv by LC-MS/MS analysis; assay type: ADME, organism-based; settings: in vivo
MDA-MB-231 [21] = assay: Anti-adhesion activity against human MDA-MB-231 cells assessed as inhibition of cell adhesion measured after 6 hrs by microscopic analysis; assay type: functional, cell-based

SMILES: COc1cc(=O)oc(/C=C/C=C/C=C/[C@@]2(C)C[C@]3(C)O[C@H](C)[C@](C)(O2)[C@H]3C(=O)CCc2ccc(Cl)cc2)c1C
IC50 (HCT-116 [1]): 4.89 µg/mL (≈ 8.84 µM)

SMILES: COc1cc(=O)oc(/C=C/C=C/C=C/[C@@]2(C)C[C@]3(C)O[C@H](C)[C@](C)(O2)[C@H]3C(=O)C(C)(C)C)c1C
IC50 (HCT-116 [1]): 4.98 µg/mL (≈ 10.6 µM)

SMILES: CCC[C@@H]1[C@@]2(C)O[C@@](C)(/C=C/C=C/C=C/c3oc(=O)cc(OC)c3C)C[C@]1(C)O[C@@H]2C
IC50 (HCT-116 [1]): 5.9 µg/mL (≈ 13.8 µM)

SMILES: COc1cc(=O)oc(/C=C/C=C/C=C/[C@]2(C)O[C@]3(C)[C@@H](C(=O)c4cccnc4)[C@@](C)(O[C@@H]3C)[C@H]2C(=O)c2cccnc2)c1C
IC50 (HCT-116 [1]): 12.5 µg/mL (≈ 21 µM)

SMILES: COc1cc(=O)oc(/C=C/C=C/C=C/[C@]2(C)O[C@]3(C)[C@@H](O)[C@@](C)(O[C@@H]3C)[C@H]2O)c1C
IC50 (HCT-116 [1]): 14.9 µg/mL (≈ 35.6 µM)
MRT last [7]: 0.33 h
half-life [8]: 21 min
inhibition (HCT-116 [9]): Active
clearance [10]: 83.2 mL/min/kg
Tmax [11]: 6 min
Activity (MDA-MB-231 [12]): Active
Activity (MDA-MB-231 [13]): Active
Cmax [14]: 417 ng/mL
inhibition (MCF7 [15]): Active
AUC(0-t) [16]: 203 ng·h/mL
inhibition (HeLa [17]): Active
Vd [18]: 2.5 L/kg
AUC(0-inf) [19]: 206 ng·h/mL
MRT inf [20]: 0.35 h

SMILES: COc1cc(=O)oc(/C=C/C=C/C=C/C(C)=C/C2(C)O[C@H](C)[C@](C)(O)[C@H]2O)c1C (some centres not stated)
IC50 (HCT-116 [1]): 19.8 µg/mL (≈ 49.1 µM)

SMILES: COc1cccc2c1C(=O)c1c(O)c3c(c(O)c1C2=O)C[C@@](O)(C(=O)CO)C[C@@H]3O[C@H]1C[C@H](N)[C@H](O)[C@H](C)O1 [DOXORUBICIN]
IC50 (HCT-116 [1]): 3.36 µg/mL (≈ 6.18 µM)
IC50 at 48 h [2]: 23.3 µg/mL (≈ 42.9 µM)
IC50 (HeLa [3]): 0.051 µg/mL (≈ 0.0938 µM)
IC50 at 48 h [4]: > 50 µg/mL
IC50 (HepG2): 0.64 µg/mL (≈ 1.18 µM)
IC50 (MGC-803): 0.51 µg/mL (≈ 0.938 µM)
IC50 (MDA-MB-231 [6]): 0.37 µg/mL (≈ 0.681 µM)

SMILES: CCC[C@H]1[C@@]2(C)O[C@H](C)[C@]1(C)O[C@@](C)(/C=C/C=C/C=C/c1oc(=O)cc(OC)c1C)[C@@H]2CCC
IC50 (HCT-116 [1]): 4.29 µg/mL (≈ 9.12 µM)

SMILES: COc1cc(=O)oc(/C=C/C=C/C=C/[C@]2(C)O[C@]3(C)[C@@H](C(=O)c4ccccc4)[C@@](C)(O[C@@H]3C)[C@H]2C(=O)c2ccccc2)c1C
IC50 (HCT-116 [1]): 28.8 µg/mL (≈ 48.4 µM)

SMILES: COc1cc(=O)oc(/C=C/C=C/C=C/[C@]2(C)O[C@]3(C)[C@@H](C(C)=O)[C@@](C)(O[C@@H]3C)[C@H]2C(C)=O)c1C
IC50 (HCT-116 [1]): 5.77 µg/mL (≈ 12.3 µM)

Second part, led by results:

IC50 (HCT-116 [1]): 1.4 µg/mL (≈ 2.91 µM)
IC50 (HeLa [3]): 1.48 µg/mL (≈ 3.08 µM)
IC50 (MCF7 [5]): 0.74 µg/mL (≈ 1.54 µM)
IC50 (HepG2): 4.19 µg/mL (≈ 8.72 µM)
IC50 (MGC-803): 5.79 µg/mL (≈ 12 µM)
IC50 (MDA-MB-231 [6]): 4.46 µg/mL (≈ 9.28 µM)
SMILES: COc1cc(=O)oc(/C=C/C=C/C=C/[C@@]2(C)C[C@]3(C)O[C@H](C)[C@](C)(O2)[C@H]3C(=O)c2ccco2)c1C
IC50 at 48 h [2]: > 50 µg/mL
IC50 at 48 h [4]: > 50 µg/mL

IC50 (HCT-116 [1]): 6.44 µg/mL (≈ 11.9 µM)
SMILES: COc1cc(=O)oc(/C=C/C=C/C=C/[C@@]2(C)C[C@]3(C)O[C@H](C)[C@](C)(O2)[C@H]3C(=O)Cc2ccc(Cl)cc2)c1C

IC50 (HCT-116 [1]): 11.4 µg/mL (≈ 23.3 µM)
SMILES: COc1cc(=O)oc(/C=C/C=C/C=C/[C@@]2(C)C[C@]3(C)O[C@H](C)[C@](C)(O2)[C@H]3C(=O)c2ccccn2)c1C

IC50 (HCT-116 [1]): 11.3 µg/mL (≈ 22 µM)
SMILES: COc1cc(=O)oc(/C=C/C=C/C=C/[C@@]2(C)C[C@]3(C)O[C@H](C)[C@](C)(O2)[C@H]3C(=O)c2ccc(C#N)cc2)c1C

IC50 (HCT-116 [1]): 4.97 µg/mL (≈ 9.55 µM)
SMILES: COc1ccc(C(=O)[C@@H]2[C@@]3(C)O[C@@](C)(/C=C/C=C/C=C/c4oc(=O)cc(OC)c4C)C[C@]2(C)O[C@@H]3C)cc1

IC50 (HCT-116 [1]): 1.52 µg/mL (≈ 3.1 µM)
IC50 (HeLa [3]): 0.85 µg/mL (≈ 1.73 µM)
IC50 (MCF7 [5]): 0.92 µg/mL (≈ 1.88 µM)
IC50 (HepG2): 3.96 µg/mL (≈ 8.07 µM)
IC50 (MGC-803): 3.97 µg/mL (≈ 8.09 µM)
IC50 (MDA-MB-231 [6]): 4.38 µg/mL (≈ 8.93 µM)
SMILES: COc1cc(=O)oc(/C=C/C=C/C=C/[C@@]2(C)C[C@]3(C)O[C@H](C)[C@](C)(O2)[C@H]3C(=O)c2ccccc2)c1C
IC50 at 48 h [2]: > 50 µg/mL
IC50 at 48 h [4]: 30.1 µg/mL (≈ 61.4 µM)

IC50 (HCT-116 [1]): 7.04 µg/mL (≈ 16.4 µM)
SMILES: COc1cc(=O)oc(/C=C/C=C/C=C/[C@@]2(C)C[C@]3(C)O[C@H](C)[C@](C)(O2)[C@H]3C(C)=O)c1C

IC50 (HCT-116 [1]): 12.5 µg/mL (≈ 25.4 µM)
SMILES: COc1cc(=O)oc(/C=C/C=C/C=C/[C@@]2(C)C[C@]3(C)O[C@H](C)[C@](C)(O2)[C@H]3C(=O)c2cccnc2)c1C

IC50 (HCT-116 [1]): 0.63 µg/mL (≈ 1.27 µM)
IC50 (HeLa [3]): 1.01 µg/mL (≈ 2.03 µM)
IC50 (MCF7 [5]): 0.62 µg/mL (≈ 1.25 µM)
IC50 (HepG2): 2.42 µg/mL (≈ 4.87 µM)
IC50 (MGC-803): 3.97 µg/mL (≈ 7.99 µM)
IC50 (MDA-MB-231 [6]): 2.87 µg/mL (≈ 5.78 µM)
SMILES: COc1cc(=O)oc(/C=C/C=C/C=C/[C@@]2(C)C[C@]3(C)O[C@H](C)[C@](C)(O2)[C@H]3C(=O)c2cccs2)c1C
inhibition (HCT-116 [9]): Active
IC50 at 48 h [2]: > 50 µg/mL
IC50 at 48 h [4]: > 50 µg/mL
inhibition (MCF7 [15]): Active
inhibition (HeLa [17]): Active

IC50 (HCT-116 [1]): 13.5 µg/mL (≈ 27.5 µM)
SMILES: COc1cc(=O)oc(/C=C/C=C/C=C/[C@@]2(C)C[C@]3(C)O[C@H](C)[C@](C)(O2)[C@H]3C(=O)c2ccncc2)c1C

IC50 (HCT-116 [1]): 1.23 µg/mL (≈ 2.34 µM)
MRT last [7]: 5.21 h
half-life [8]: 503 min
clearance [10]: 2 mL/min/kg
Tmax [11]: 7.2 min
IC50 (HeLa [3]): 1.35 µg/mL (≈ 2.57 µM)
Cmax [14]: 3040 ng/mL
AUC(0-t) [16]: 7710 ng·h/mL
IC50 (MCF7 [5]): 0.68 µg/mL (≈ 1.3 µM)
IC50 (HepG2): 1.96 µg/mL (≈ 3.73 µM)
IC50 (MGC-803): 1.54 µg/mL (≈ 2.93 µM)
Vd [18]: 1.42 L/kg
AUC(0-inf) [19]: 8640 ng·h/mL
IC50 (MDA-MB-231 [6]): 4.04 µg/mL (≈ 7.69 µM)
MRT inf [20]: 8.69 h
SMILES: COc1cc(=O)oc(/C=C/C=C/C=C/[C@@]2(C)C[C@]3(C)O[C@H](C)[C@](C)(O2)[C@H]3C(=O)c2ccc(Cl)cc2)c1C
inhibition (HCT-116 [9]): Active
IC50 at 48 h [2]: > 50 µg/mL
Activity (MDA-MB-231 [12]): Active
Activity (MDA-MB-231 [13]): Active
IC50 at 48 h [4]: > 50 µg/mL
inhibition (MCF7 [15]): Active
inhibition (HeLa [17]): Active
Activity (MDA-MB-231 [21]): Active
